# Test results as given in US7750003B2, “Compounds-943” (AstraZeneca AB, priority 2006, dated 2010).
# Target: recombinant mTOR (FLAG-tagged, residues 1362-2549) (Homo sapiens, UniProt P42345)
# Assay: In vitro mTOR kinase assay (Test (a), AlphaScreen)
# Assay type: biochemical
# Details: ATP 20 μM, read-out: Test (a): IC50 versus mTOR kinase
# Description: (a) In Vitro mTOR Kinase Assay
# Following expression in the mammalian HEK293 cell line, expressed protein was purified using the FLAG epitope tag using standard purification techniques.
# Aliquots (2 μl) of each compound dilution were placed into a well of a Greiner 384-well low volume (LV) white polystyrene plate (Greiner Bio-one).
# These assay solutions were incubated for 2 hours at room temperature.
# The resultant signals arising from laser light excitation at 680 nm were read using a Packard Envision instrument.
# The phosphorylated biotinylated peptide that is associated with AlphaScreen Streptavidin donor beads forms a complex with the p70 S6 Kinase (T389) 1A5 Monoclonal Antibody that is associated with Alphascreen Protein A acceptor beads. Upon laser light excitation at 680 nm, the donor bead: acceptor bead complex produces a signal that can be measured. Accordingly, the presence of mTOR kinase activity results in an assay signal. In the presence of an mTOR kinase inhibitor, signal strength is reduced.
# mTOR enzyme inhibition for a given test compound was expressed as an IC50 value.
# recombinant mTOR (FLAG-tagged, residues 1362-2549), sequence (P42345 1362-2549): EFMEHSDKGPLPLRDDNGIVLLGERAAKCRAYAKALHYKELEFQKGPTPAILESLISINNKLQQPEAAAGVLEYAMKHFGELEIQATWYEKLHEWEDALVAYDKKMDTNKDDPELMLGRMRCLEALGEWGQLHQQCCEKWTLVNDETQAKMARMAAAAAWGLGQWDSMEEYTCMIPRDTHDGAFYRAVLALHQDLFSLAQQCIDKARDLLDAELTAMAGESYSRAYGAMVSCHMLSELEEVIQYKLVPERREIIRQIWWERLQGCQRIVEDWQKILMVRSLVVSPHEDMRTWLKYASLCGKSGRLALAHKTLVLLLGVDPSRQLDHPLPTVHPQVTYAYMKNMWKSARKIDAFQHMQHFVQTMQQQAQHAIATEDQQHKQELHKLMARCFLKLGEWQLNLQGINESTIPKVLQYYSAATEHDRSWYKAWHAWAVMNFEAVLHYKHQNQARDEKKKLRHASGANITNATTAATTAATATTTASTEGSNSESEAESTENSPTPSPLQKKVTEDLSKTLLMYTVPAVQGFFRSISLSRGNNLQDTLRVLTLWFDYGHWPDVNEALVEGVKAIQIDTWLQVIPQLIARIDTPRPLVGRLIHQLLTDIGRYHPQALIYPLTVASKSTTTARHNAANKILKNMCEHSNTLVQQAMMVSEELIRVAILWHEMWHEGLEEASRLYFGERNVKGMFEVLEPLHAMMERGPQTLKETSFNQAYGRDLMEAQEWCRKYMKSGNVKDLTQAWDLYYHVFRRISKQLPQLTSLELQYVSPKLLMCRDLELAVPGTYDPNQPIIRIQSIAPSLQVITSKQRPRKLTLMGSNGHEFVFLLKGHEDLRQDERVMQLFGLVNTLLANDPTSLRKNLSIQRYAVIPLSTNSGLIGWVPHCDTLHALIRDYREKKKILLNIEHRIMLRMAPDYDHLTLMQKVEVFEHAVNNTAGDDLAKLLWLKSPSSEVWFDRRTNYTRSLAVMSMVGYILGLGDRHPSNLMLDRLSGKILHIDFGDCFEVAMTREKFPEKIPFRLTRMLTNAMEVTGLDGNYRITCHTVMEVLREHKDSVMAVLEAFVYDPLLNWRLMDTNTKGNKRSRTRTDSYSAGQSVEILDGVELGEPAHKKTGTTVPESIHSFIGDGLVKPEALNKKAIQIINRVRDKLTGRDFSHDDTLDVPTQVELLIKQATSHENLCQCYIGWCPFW
row,Structure (SMILES),IC50 [nM]
1,"C[C@H]1COCCN1c1cc(CO)nc(-c2ccc(NC(=O)N(C)C)cc2)n1 [Example 10, 3-[4-[4-(Hydroxymethyl)-6-[(3S)-3-methylmorpholin-4-yl]pyrimidin-2-yl]phenyl]-1,1-dimethyl-urea]",19000
2,"CC(=O)NCCS(=O)(=O)Cc1cc(N2CCOC[C@@H]2C)nc(-c2ccc(NC(=O)Nc3ccccc3)cc2)n1 [Example 11, N-[2-[[6-[(3S)-3-methylmorpholin-4-yl]-2-[4-(phenylcarbamoylamino)phenyl]pyrimidin-4-yl]methylsulfonyl]ethyl]acetamide]",140
3,"C[C@H]1COCCN1c1cc(CS(=O)(=O)c2ccccc2)nc(-c2ccc(NC(=O)Nc3ccccc3)cc2)n1 [Example 12, 1-[4-[4-(Benzenesulfonylmethyl)-6-[(3S)-3-methylmorpholin-4-yl]pyrimidin-2-yl]phenyl]-3-phenyl-urea]",230
4,"C[C@H]1COCCN1c1cc(CS(=O)(=O)CC#N)nc(-c2ccc(NC(=O)N(C)C)cc2)n1 [Example 13, 3-[4-[4-(Cyanomethylsulfonylmethyl)-6-[(3S)-3-methylmorpholin-4-yl]pyrimidin-2-yl]phenyl]-1,1-dimethyl-urea]",2100
5,"CC(C)S(=O)(=O)Cc1cc(N2CCOC[C@@H]2C)nc(-c2ccc(NC(=O)N(C)C)cc2)n1 [Example 14, 1,1-Dimethyl-3-[4-[4-[(3S)-3-methylmorpholin-4-yl]-6-(propan-2-ylsulfonylmethyl)pyrimidin-2-yl]phenyl]urea]",420
6,"C[C@H]1COCCN1c1cc(CS(=O)(=O)c2ccccc2)nc(-c2ccc(NC(=O)N(C)C)cc2)n1 [Example 15, 3-[4-[4-(Benzenesulfonylmethyl)-6-[(3S)-3-methylmorpholin-4-yl]pyrimidin-2-yl]phenyl]-1,1-dimethyl-urea]",1000
7,"CC(=O)NCCS(=O)(=O)Cc1cc(N2CCOC[C@@H]2C)nc(-c2ccc(NC(=O)N(C)C)cc2)n1 [Example 16, N-[2-[[2-[4-(Dimethylcarbamoylamino)phenyl]-6-[(3S)-3-methylmorpholin-4-yl]pyrimidin-4-yl]methylsulfonyl]ethyl]acetamide]",4000
8,"C[C@H]1COCCN1c1cc(CS(=O)(=O)CC(N)=O)nc(-c2ccc(NC(=O)N(C)C)cc2)n1 [Example 17, 2-[[2-[4-(Dimethylcarbamoylamino)phenyl]-6-[(3S)-3-methylmorpholin-4-yl]pyrimidin-4-yl]methylsulfonyl]acetamide]",1100
9,"CNC(=O)Nc1ccc(-c2nc(CO)cc(N3CCOC[C@@H]3C)n2)cc1 [Example 18, 1-[4-[4-(Hydroxymethyl)-6-[(3S)-3-methylmorpholin-4-yl]pyrimidin-2-yl]phenyl]-3-methyl-urea]",120
10,"CNC(=O)Nc1ccc(-c2nc(CS(=O)(=O)C3CCCCC3)cc(N3CCOC[C@@H]3C)n2)cc1 [Example 19, 1-[4-[4-(Cyclohexylsulfonylmethyl)-6-[(3S)-3-methylmorpholin-4-yl]pyrimidin-2-yl]phenyl]-3-methyl-urea]",250
11,"CNC(=O)Nc1ccc(-c2nc(CS(=O)(=O)c3ccccc3)cc(N3CCOC[C@@H]3C)n2)cc1 [Example 19a, 1-[4-[4-(benzenesulfonylmethyl)-6-[(3S)-3-methylmorpholin-4-yl]pyrimidin-2-yl]phenyl]-3-methyl-urea]",4.7
12,"CNC(=O)Nc1ccc(-c2nc(CS(=O)(=O)c3ccc(F)cc3)cc(N3CCOC[C@@H]3C)n2)cc1 [Example 19b, 1-[4-[4-[(4-fluorophenyl)sulfonylmethyl]-6-[(3S)-3-methylmorpholin-4-yl]pyrimidin-2-yl]phenyl]-3-methyl urea]",33
13,"CNC(=O)Nc1ccc(-c2nc(CS(=O)(=O)c3ccc(NC(C)=O)cc3)cc(N3CCOC[C@@H]3C)n2)cc1 [Example 19c, N-[4-[[2-[4-(methylcarbamoylamino)phenyl]-6-[(3S)-3-methylmorpholin-4-yl]pyrimidin-4-yl]methylsulfonyl]phenyl]acetamide]",22
14,"CNC(=O)Nc1ccc(-c2nc(CS(=O)(=O)C(C)C)cc(N3CCOC[C@@H]3C)n2)cc1 [Example 19d, 3-methyl-1-[4-[4-[(3S)-3-methylmorpholin-4-yl]-6-(propan-2-ylsulfonylmethyl)pyrimidin-2-yl]phenyl]urea]",66
15,"CNC(=O)Nc1ccc(-c2nc(CS(=O)(=O)CCO)cc(N3CCOC[C@@H]3C)n2)cc1 [Example 19e, 1-[4-[4-(2-hydroxyethylsulfonylmethyl)-6-[(3S)-3-methylmorpholin-4-yl]pyrimidin-2-yl]phenyl]-3-methyl-urea]",11
16,"CNC(=O)Nc1ccc(-c2nc(CS(=O)(=O)c3ccccc3)cc(N3CCOCC3)n2)cc1 [Example 20, 3-[4-[4-(Benzenesulfonylmethyl)-6-morpholin-4-yl-pyrimidin-2-yl]phenyl]-1-methyl-urea]",43
17,"CCNC(=O)Nc1ccc(-c2nc(CS(=O)(=O)c3ccccc3)cc(N3CCOCC3)n2)cc1 [Example 20a, 3-[4-[4-(benzenesulfonylmethyl)-6-morpholin-4-yl-pyrimidin-2-yl]phenyl]-1-ethyl-urea]",150
18,"O=C(Nc1ccc(-c2nc(CS(=O)(=O)c3ccccc3)cc(N3CCOCC3)n2)cc1)NC1CC1 [Example 20b, 1-[4-[4-(benzenesulfonylmethyl)-6-morpholin-4-yl-pyrimidin-2-yl]phenyl]-3-cyclopropyl-urea]",170
19,"CN(C)CCNC(=O)Nc1ccc(-c2nc(CS(=O)(=O)c3ccccc3)cc(N3CCOCC3)n2)cc1 [Example 20c, 3-[4-[4-(benzenesulfonylmethyl)-6-morpholin-4-yl-pyrimidin-2-yl]phenyl]-1-(2-dimethylaminoethyl)urea]",1000
20,"CN1CCC(NC(=O)Nc2ccc(-c3nc(CS(=O)(=O)c4ccccc4)cc(N4CCOCC4)n3)cc2)CC1 [Example 20d, 3-[4-[4-(benzenesulfonylmethyl)-6-morpholin-4-yl-pyrimidin-2-yl]phenyl]-1-(1-methyl-4-piperidyl)urea]",1600
21,"COCCNC(=O)Nc1ccc(-c2nc(CS(=O)(=O)c3ccccc3)cc(N3CCOCC3)n2)cc1 [Example 20e, 3-[4-[4-(benzenesulfonylmethyl)-6-morpholin-4-yl-pyrimidin-2-yl]phenyl]-1-(2-methoxyethyl)urea]",2100
22,"CCNC(=O)Nc1ccc(-c2nc(CS(=O)(=O)c3ccccc3)cc(N3CCOC[C@@H]3C)n2)cc1 [Example 20f, 3-[4-[4-(benzenesulfonylmethyl)-6-[(3S)-3-methylmorpholin-4-yl]pyrimidin-2-yl]phenyl]-1-ethyl-urea]",35
23,"C[C@H]1COCCN1c1cc(CS(=O)(=O)c2ccccc2)nc(-c2ccc(NC(=O)NC3CC3)cc2)n1 [Example 20g, 1-[4-[4-(benzenesulfonylmethyl)-6-[(3S)-3-methylmorpholin-4-yl]pyrimidin-2-yl]phenyl]-3-cyclopropyl-urea]",39
24,"C[C@H]1COCCN1c1cc(CS(=O)(=O)c2ccccc2)nc(-c2ccc(NC(=O)NCCN(C)C)cc2)n1 [Example 20h, 1-[4-[4-(benzenesulfonylmethyl)-6-[(3S)-3-methylmorpholin-4-yl]pyrimidin-2-yl]phenyl]-3-(2-dimethylaminoethyl)urea]",440
25,"C[C@H]1COCCN1c1cc(CS(=O)(=O)c2ccccc2)nc(-c2ccc(NC(=O)NC3CCN(C)CC3)cc2)n1 [Example 20i, 1-[4-[4-(benzenesulfonylmethyl)-6-[(3S)-3-methylmorpholin-4-yl]pyrimidin-2-yl]phenyl]-3-(1-methyl-4-piperidyl)urea]",700
